Assay results published in patent publication US20260325605A1, “INHIBITORS” (Zealand Pharma A/S, priority 2022, published 2026).
pIC50: −log10 of the molar value.

Experiments:
[1] = test system: T-cell activation in rat whole blood; test: Example 4: IL-17A release in thapsigargin stimulated rat whole blood; assay type: cell-based, rat (Lewis or Sprague-Dawley); conditions: 24 Hr, at least 2 replicates, unit inferred, read-out: IC50 (inhibition of IL-17A release)
Source text: Rat whole blood was used to assess the potency of Kv1.3 inhibitor peptides on T-cell activation as determined by IL-17A release after stimulation with thapsigargin. Addition of thapsigargin results in activation of a signalling cascade ending up in activation of T cell proliferation and cytokine production where the Kv1.3 ion channel plays a key role, so activity of Kv1.3 inhibitors in primary cells can be measured in this experimental system.
Rat whole blood was obtained from healthy, naïve Lewis or Sprague-Dawley rats that were terminally bleed from the heart using Sodium Heparin blood sampling tubes for collection. Peptides were diluted to 4× final testing concentrations in assay buffer (DMEM+GlutaMAX), GlutaMAX is a medium comprising 3.97 mM L-alanine-L-glutamine (Gibco Cat #61965026) supplemented with 25 mM HEPES buffer, 1 mM Sodium Pyruvate, 100 units/ml Penicillin, 100 μg/ml Streptomycin and 0.05% Casein from bovine milk (Sigma-Aldrich)) and 25 μl was added to wells of a 96 well plate. Then 50 μl whole rat blood was added and incubated for minimum 5 minutes at room temperature to allow compound binding. Then 25 μl 40 μM thapsigargin diluted in assay buffer was added to all wells of the assay plates to activate the cells, followed by incubation for 24 Hr at 37° C./5% CO2 in a humidified box. The assay plates were centrifuged for 10 min at 300 g at 4° C. and the supernatants were transferred to new plates. The concentrations of IL-17A released to the supernatants were measured using a Rat IL-17A ELISA Kit (Abcam Cat #ab214028) as recommended by the manufacturer. Samples were diluted 2.5-fold by transferring 20 μl of the supernatants to wells on ELISA plates containing 30 μl buffer 75BS from the detection kit.
Data from peptides eliciting an inhibition of IL-17A were normalised relative to full thapsigargin activation (no inhibitor added) and no activation controls (addition of assay buffer instead of thapsigargin) to calculate the IC50 from the concentration response curve.
Results are shown in Table 5, expressed as IC50, with standard deviation (IC50_SD). All values are derived from at least 2 replicates. The biological effects ex vivo show a correlation with the potency of the peptides.

Kv1.3 = target: T1, Kv1.3 (Homo sapiens, UniProt P22001); test: Patch clamp assay (QPatch), Kv1.3; assay type: cell-based; conditions: CHO cells stably expressing human Kv1.3, read-out: Potency IC50, Kv1.3
T1 construct: expressed in transfected cells
Description: (§1) Selectivity of Kv1.3 inhibitor peptides for Kv1.3 over other potassium ion channels (Kv1.1, Kv1.2 and Kv1.6) was determined using patch clamp assay.
(§2) Chinese Hamster Ovary (CHO) cell lines stably expressing exogenous human α-subunits of each potassium ion channel were grown and passaged under standard culture conditions.
(§3) The automated, chip-based planar patch clamp device QPatch® was used to quantitate the ionic currents. All recordings were made in the conventional whole-cell configuration after establishment of gigaohm seals. […] During experiments 0.1% (v/v) BSA was included as a vehicle in all external recording solutions. Currents were elicited from a holding potential of −80 mV using a voltage protocol, which shifted the voltage to 30 mV for 500 ms every 15 s.
(§4) Concentration-response relationships were established by cumulatively applying seven escalating concentrations of test sample to an individual cell with a recording period of 2 min per compound application.
(§5) The efficacy was determined as the mean charge for the last three sweeps at the end of each concentration application period from the cursor positions. The percent inhibition for each test dose application period was calculated as the reduction in mean cursor value (charge) relative to the cursor value measured at the end of the vehicle period and used to calculate the IC50 from the concentration response curve.

Kv1.1 = target: T2, Kv1.1 (Homo sapiens, UniProt Q09470); test: Patch clamp assay (QPatch), Kv1.1; assay type: cell-based; conditions: for pIC50: QPatch, CHO cells stably expressing human Kv1.1, read-out: Potency IC50, Kv1.1; for Selectivity Kv1.1/Kv1.3: ratio of IC50 Kv1.1/Kv1.3
T2 construct: expressed in transfected cells

Kv1.2 = target: T3, Kv1.2 (Homo sapiens, UniProt P16389); test: Patch clamp assay (QPatch), Kv1.2; assay type: cell-based; conditions: for pIC50: QPatch, CHO cells stably expressing human Kv1.2, read-out: Potency IC50, Kv1.2; for Selectivity Kv1.2/Kv1.3: ratio of IC50 Kv1.2/Kv1.3
T3 construct: expressed in transfected cells

Kv1.6 = target: T4, Kv1.6 (Homo sapiens, UniProt P17658); test: Patch clamp assay (QPatch), Kv1.6; assay type: cell-based; conditions: for pIC50: QPatch, CHO cells stably expressing human Kv1.6, read-out: Potency IC50, Kv1.6; for Selectivity Kv1.6/Kv1.3: ratio of IC50 Kv1.6/Kv1.3
T4 construct: expressed in transfected cells
T4 sequence (P17658 whole entry): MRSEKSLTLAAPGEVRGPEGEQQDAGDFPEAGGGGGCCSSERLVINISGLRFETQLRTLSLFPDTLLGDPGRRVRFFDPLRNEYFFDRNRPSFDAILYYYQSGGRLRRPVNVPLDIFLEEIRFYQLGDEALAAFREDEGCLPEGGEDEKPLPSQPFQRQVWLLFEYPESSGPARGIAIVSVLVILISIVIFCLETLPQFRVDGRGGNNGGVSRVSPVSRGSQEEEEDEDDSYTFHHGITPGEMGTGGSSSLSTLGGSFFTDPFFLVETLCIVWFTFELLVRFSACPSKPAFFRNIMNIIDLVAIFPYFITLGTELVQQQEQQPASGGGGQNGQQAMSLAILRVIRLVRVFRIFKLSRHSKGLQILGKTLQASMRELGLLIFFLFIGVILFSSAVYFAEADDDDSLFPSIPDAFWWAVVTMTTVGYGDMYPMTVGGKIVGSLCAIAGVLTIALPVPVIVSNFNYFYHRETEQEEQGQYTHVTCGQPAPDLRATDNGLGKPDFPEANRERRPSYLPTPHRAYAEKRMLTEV
Description: as §1, §2, §3, §4, §5

T1 sequence (P22001 whole entry): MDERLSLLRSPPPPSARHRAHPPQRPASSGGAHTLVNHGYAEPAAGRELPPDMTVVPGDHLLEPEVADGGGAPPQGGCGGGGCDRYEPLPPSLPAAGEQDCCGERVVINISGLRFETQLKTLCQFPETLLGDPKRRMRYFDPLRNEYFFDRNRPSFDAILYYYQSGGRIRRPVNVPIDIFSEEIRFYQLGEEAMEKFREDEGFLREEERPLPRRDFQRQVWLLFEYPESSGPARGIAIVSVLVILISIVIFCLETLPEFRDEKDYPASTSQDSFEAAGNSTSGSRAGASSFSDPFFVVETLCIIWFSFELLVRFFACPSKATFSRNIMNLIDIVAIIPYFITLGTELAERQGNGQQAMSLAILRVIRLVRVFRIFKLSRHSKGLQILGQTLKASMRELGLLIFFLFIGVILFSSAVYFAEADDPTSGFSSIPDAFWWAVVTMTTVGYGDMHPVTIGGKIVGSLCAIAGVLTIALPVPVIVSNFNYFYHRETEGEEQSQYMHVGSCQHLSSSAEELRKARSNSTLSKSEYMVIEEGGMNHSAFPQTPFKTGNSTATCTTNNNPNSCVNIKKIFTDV
T2 sequence (Q09470 whole entry): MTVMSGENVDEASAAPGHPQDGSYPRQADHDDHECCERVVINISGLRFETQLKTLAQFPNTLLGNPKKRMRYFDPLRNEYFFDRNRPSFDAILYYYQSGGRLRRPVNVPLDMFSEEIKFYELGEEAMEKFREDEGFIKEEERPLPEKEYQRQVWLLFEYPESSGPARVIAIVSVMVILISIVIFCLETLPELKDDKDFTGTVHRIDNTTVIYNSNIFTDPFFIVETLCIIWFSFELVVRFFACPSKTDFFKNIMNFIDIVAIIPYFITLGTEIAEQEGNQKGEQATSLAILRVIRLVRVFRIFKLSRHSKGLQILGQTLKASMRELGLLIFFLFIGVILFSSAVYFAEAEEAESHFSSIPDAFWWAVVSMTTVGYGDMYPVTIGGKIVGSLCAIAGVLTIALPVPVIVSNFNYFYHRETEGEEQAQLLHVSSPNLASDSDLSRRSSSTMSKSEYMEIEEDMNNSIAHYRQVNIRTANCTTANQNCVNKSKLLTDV
T3 sequence (P16389 whole entry): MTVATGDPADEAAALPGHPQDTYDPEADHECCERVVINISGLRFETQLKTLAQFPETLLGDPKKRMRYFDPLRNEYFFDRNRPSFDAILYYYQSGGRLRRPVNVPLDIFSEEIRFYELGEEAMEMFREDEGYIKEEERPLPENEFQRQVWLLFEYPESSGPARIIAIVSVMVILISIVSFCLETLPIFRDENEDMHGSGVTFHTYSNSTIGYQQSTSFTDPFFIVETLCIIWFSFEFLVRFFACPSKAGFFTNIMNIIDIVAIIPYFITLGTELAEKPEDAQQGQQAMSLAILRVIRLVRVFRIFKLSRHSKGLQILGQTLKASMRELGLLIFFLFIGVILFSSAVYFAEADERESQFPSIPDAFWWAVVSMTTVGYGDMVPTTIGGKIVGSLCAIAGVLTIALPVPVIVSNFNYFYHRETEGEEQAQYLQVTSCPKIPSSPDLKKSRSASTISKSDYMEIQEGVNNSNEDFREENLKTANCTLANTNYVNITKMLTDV

Ac-LRC(1)SASVEC(2)KQKC(3)LAAIGSIFGKC(1)MNKKC(2)KC(3)YPR-OH [Peptide 123]
pIC50 [1]: 9.44

Ac-LRC(1)SASVEC(2)KQKC(3)LAAIGSIFGKC(1)[Nle]NKKC(2)KC(3)YPR-OH [Peptide 122]
pIC50 [1]: 9.05

H-AAAISCVGSPECPPKCRAQGCKNGKCMNRKCKCYYC-NH2 [Vm24, reference compound]
pIC50 (Kv1.3): 9.82
pIC50 (Kv1.1): 10.01
Selectivity Kv1.1/Kv1.3 (Kv1.1): 0.65
pIC50 (Kv1.2): 8.33
Selectivity Kv1.2/Kv1.3 (Kv1.2): 31
pIC50 (Kv1.6): 7.68
Selectivity Kv1.6/Kv1.3 (Kv1.6): 139

H-C(1)SASVEC(2)KQKC(3)LKAIGC(4)IFGKC(1)[Nle]NKKC(2)KC(3)YPC(4)-NH2 [Peptide 89]
pIC50 [1]: 8.96

H-LRC(1)SASVEC(2)KQKC(3)LKAIGSIFGKC(1)[Nle]NKKC(2)KC(3)YPR-OH [Peptide 115]
pIC50 [1]: 8.68

H-NMDMRC(1)KASVEC(2)KQKC(3)LKAIGSIFGKC(1)MNKKC(2)KC(3)YPR-NH2 [Peptide 26]
pIC50 (Kv1.3): 10.05
pIC50 (Kv1.1): < 5.52
Selectivity Kv1.1/Kv1.3 (Kv1.1): >34200
pIC50 (Kv1.2): 7.17
Selectivity Kv1.2/Kv1.3 (Kv1.2): 761
pIC50 (Kv1.6): 6.44
Selectivity Kv1.6/Kv1.3 (Kv1.6): 4144

H-NMDMRC(1)SASVEC(2)KQKC(3)LAIGSIFGKC(1)MNKKC(2)KC(3)YPR-NH2 [Peptide 55]
pIC50 (Kv1.3): 8.62
pIC50 (Kv1.1): < 5.52
Selectivity Kv1.1/Kv1.3 (Kv1.1): >1200
pIC50 (Kv1.2): 6.54
Selectivity Kv1.2/Kv1.3 (Kv1.2): 121
pIC50 (Kv1.6): < 5.52
Selectivity Kv1.6/Kv1.3 (Kv1.6): >1200

H-NMDMRC(1)SASVEC(2)KQKC(3)LKAIGSIFGKC(1)MNKKC(2)VC(3)YPR-NH2 [Peptide 39]
pIC50 [1]: 8.55

H-NMDMRC(1)SASVEC(2)KQKC(3)LKAIHSIFGKC(1)MNKKC(2)KC(3)YPR-NH2 [Peptide 34]
pIC50 [1]: 9.15

H-NMDMRC(1)SASVEC(2)KQKC(3)LKAYGSIFGKC(1)MNKKC(2)KC(3)YPR-NH2 [Peptide 59]
pIC50 (Kv1.3): 9.47
pIC50 (Kv1.1): < 5.52
Selectivity Kv1.1/Kv1.3 (Kv1.1): >8800
pIC50 (Kv1.2): 6.84
Selectivity Kv1.2/Kv1.3 (Kv1.2): 426
pIC50 (Kv1.6): < 5.52
Selectivity Kv1.6/Kv1.3 (Kv1.6): >8800

H-NMDMRC(1)SASVEC(2)KQKC(3)LKRIGSIFGKC(1)MNKKC(2)KC(3)YPR-NH2 [Peptide 57]
pIC50 (Kv1.3): 9.52
pIC50 (Kv1.1): < 5.52
Selectivity Kv1.1/Kv1.3 (Kv1.1): >9900
pIC50 (Kv1.2): 7.24
Selectivity Kv1.2/Kv1.3 (Kv1.2): 187
pIC50 (Kv1.6): 6.03
Selectivity Kv1.6/Kv1.3 (Kv1.6): 3062

H-NMDMRC(1)SASVEC(2)KQKC(3)LKYIGSIFGKC(1)MNKKC(2)KC(3)YPR-NH2 [Peptide 56]
pIC50 (Kv1.3): 9.92

H-NMDMRC(1)SASVEC(2)KQKC(3)RKAIGSIFGKC(1)MNKKC(2)KC(3)YPR-NH2 [Peptide 52]
pIC50 (Kv1.3): 9.60

H-NMDMRC(1)SASVEC(2)KQKC(3)YKAIGSIFGKC(1)MNKKC(2)KC(3)YPR-NH2 [Peptide 51]
pIC50 (Kv1.3): 9.57

H-NMEMRC(1)SASVEC(2)KQKC(3)LKAIGSIFGKC(1)MNKKC(2)KC(3)YPR-OH [Peptide 13]
pIC50 (Kv1.3): 9.96
pIC50 (Kv1.1): < 5.52
Selectivity Kv1.1/Kv1.3 (Kv1.1): >27600
pIC50 (Kv1.2): 6.64
Selectivity Kv1.2/Kv1.3 (Kv1.2): 2093
pIC50 (Kv1.6): < 5.52
Selectivity Kv1.6/Kv1.3 (Kv1.6): >27600

H-N[Nle]D[Nle]RC(1)SASVEC(2)EQKC(3)LKAIGSIFGKC(1)[Nle]NKKC(2)KC(3)YPR-NH2 [Peptide 44]
pIC50 [1]: 9.00

H-N[Nle]D[Nle]RC(1)SASVEC(2)KQKC(3)LKAIGSIFGKC(1)MNKKC(2)KC(3)YPR-NH2 [Peptide 40]
pIC50 (Kv1.3): 9.82

H-N[Nle]D[Nle]RC(1)SASVEC(2)KQKC(3)LKAIGSIFGKC(1)[Nle]NKKC(2)KC(3)YPR-NH2 [Peptide 41]
pIC50 (Kv1.3): 9.59
pIC50 (Kv1.1): < 5.52
Selectivity Kv1.1/Kv1.3 (Kv1.1): >11600
pIC50 (Kv1.2): 6.95
Selectivity Kv1.2/Kv1.3 (Kv1.2): 436
pIC50 (Kv1.6): 5.74
Selectivity Kv1.6/Kv1.3 (Kv1.6): 7073

H-N[Nle]D[Nle]RC(1)SASVEC(2)QQKC(3)LKAIGSIFGKC(1)[Nle]NKKC(2)KC(3)YPR-NH2 [Peptide 45]
pIC50 [1]: 8.96

H-PIDERC(1)SASVEC(2)KQKC(3)LAAIGSIFGKC(1)[Nle]NKKC(2)KC(3)YPR-OH [Peptide 104]
pIC50 [1]: 9.06

H-P[Nle]D[Nle]RC(1)SASVEC(2)AQKC(3)LAAIGSIFGKC(1)MNKKC(2)KC(3)YPR-OH [Peptide 106]
pIC50 [1]: 9.49

H-P[Nle]D[Nle]RC(1)SASVEC(2)KEKC(3)L[homo-Gln]AIGSIFGKC(1)[Nle]NKKC(2)KC(3)YPR-NH2 [Peptide 88]
pIC50 [1]: 8.85

H-P[Nle]D[Nle]RC(1)SASVEC(2)KQKC(3)LKAIGC(4)IFGKC(1)[Nle]NKKC(2)KC(3)YPC(4)-OH [Peptide 86]
pIC50 [1]: 8.96

H-P[Nle]E[Nle]RC(1)SASVEC(2)KQKC(3)LLAIGSIFGKC(1)[Nle]NKKC(2)KC(3)YPR-OH [Peptide 103]
pIC50 [1]: 9.30

H-P[Nle]E[Nle]RC(1)[2,4-Diaminobutanoyl]ASVEC(2)KQKC(3)LAAIGSIFGKC(1)[Nle]NKKC(2)KC(3)YPR-OH [Peptide 84]
pIC50 (Kv1.3): 10.55
pIC50 (Kv1.1): < 5.52
Selectivity Kv1.1/Kv1.3 (Kv1.1): >100000
pIC50 (Kv1.2): 6.32
Selectivity Kv1.2/Kv1.3 (Kv1.2): 17000
pIC50 (Kv1.6): < 5.52
Selectivity Kv1.6/Kv1.3 (Kv1.6): >100000

H-RSCIDTIPKSRCTAFQCKHSMKYRLSFCRKTCGTC-OH [ShK, reference compound]
pIC50 (Kv1.2): 7.96
pIC50 (Kv1.6): 9.72

H-S[Nle]D[Nle]RC(1)SASVEC(2)AQKC(3)LAAIGSIFGKC(1)MNKKC(2)KC(3)YPR-NH2 [Peptide 82]
pIC50 (Kv1.3): 9.80

H-S[Nle]D[Nle]RC(1)SASVEC(2)KEKC(3)LQAIGSIFGKC(1)[Nle]NKKC(2)KC(3)YPR-NH2 [Peptide 87]
pIC50 [1]: 9.16

H-S[Nle]D[Nle]RC(1)SASVEC(2)KQKC(3)LAAIGC(4)IFGKC(1)[Nle]NKKC(2)KC(3)YPC(4)-NH2 [Peptide 90]
pIC50 [1]: 9.14

H-S[Nle]D[Nle]RC(1)SASVEC(2)KQKC(3)LKAIGSIFGKC(1)MNKKC(2)KC(3)YQ-NH2 [Peptide 76]
pIC50 [1]: 8.80

H-S[Nle]D[Nle]RC(1)SASVEC(2)KQKC(3)LKAIGSIFGKC(1)MNKKC(2)KC(3)[F(4-CH3)]PR-NH2 [Peptide 96]
pIC50 [1]: 9.27

H-S[Nle]D[Nle]RC(1)SASVEC(2)KQKC(3)LKAIGSIFGKC(1)MNKKC(2)KC(3)[F(4-F)]PR-NH2 [Peptide 94]
pIC50 [1]: 9.47

H-S[Nle]D[Nle]RC(1)SASVEC(2)KQKC(3)LKAIGSIFGKC(1)MNKKC(2)KC(3)[F(4-NO2)]PR-NH2 [Peptide 95]
pIC50 [1]: 8.89

H-S[Nle]D[Nle]RC(1)SASVEC(2)KQKC(3)LKAIGSIFGKC(1)[Nle]NKKC(2)KC(3)YPR-OH [Peptide 68]
pIC50 [1]: 9.28

H-S[Nle]D[Nle]RC(1)SASVEC(2)KQKC(3)LKAIGSIFG[homo-Lys]C(1)MNKKC(2)KC(3)YPR-NH2 [Peptide 71]
pIC50 [1]: 8.57

H-S[Nle]D[Nle]RC(1)SASVEC(2)KQKC(3)LVAIGSIFGKC(1)MNKKC(2)KC(3)YPR-NH2 [Peptide 80]
pIC50 [1]: 9.41

H-S[Nle]D[Nle]RC(1)SASVEC(2)K[2-Amino-5-carboxypentanoyl]KC(3)LKAIGSIFGKC(1)MNKKC(2)KC(3)YPR-NH2 [Peptide 75]
pIC50 [1]: 9.28

H-S[Nle]D[Nle]RC(1)SASVEC(2)VQKC(3)LKAIGSIFGKC(1)MNKKC(2)KC(3)YPR-NH2 [Peptide 74]
pIC50 [1]: 9.33

H-S[Nle]D[Nle]RC(1)SA[Abu]VEC(2)KQKC(3)LKAIGSIFGKC(1)MNKKC(2)KC(3)YPR-NH2 [Peptide 70]
pIC50 [1]: 9.03
